Results published in patent publication US9902725B2, “Heterocyclic derivatives as RORgamma modulators” (GENFIT, priority 2014, dated 2018).

Legend:
human RORγt [1] = molecular target: T1, human RORγt (Homo sapiens, UniProt P51449); assay: RORE luciferase/RORγt transactivation assay; format: cell-based; set-up: expressed in transfected cells; settings: COS-7 cells transfected with IL-17 promoter luciferase reporter and RORγt plasmid, 20 h
T1 sequence (P51449 1-497 isoform P51449-2): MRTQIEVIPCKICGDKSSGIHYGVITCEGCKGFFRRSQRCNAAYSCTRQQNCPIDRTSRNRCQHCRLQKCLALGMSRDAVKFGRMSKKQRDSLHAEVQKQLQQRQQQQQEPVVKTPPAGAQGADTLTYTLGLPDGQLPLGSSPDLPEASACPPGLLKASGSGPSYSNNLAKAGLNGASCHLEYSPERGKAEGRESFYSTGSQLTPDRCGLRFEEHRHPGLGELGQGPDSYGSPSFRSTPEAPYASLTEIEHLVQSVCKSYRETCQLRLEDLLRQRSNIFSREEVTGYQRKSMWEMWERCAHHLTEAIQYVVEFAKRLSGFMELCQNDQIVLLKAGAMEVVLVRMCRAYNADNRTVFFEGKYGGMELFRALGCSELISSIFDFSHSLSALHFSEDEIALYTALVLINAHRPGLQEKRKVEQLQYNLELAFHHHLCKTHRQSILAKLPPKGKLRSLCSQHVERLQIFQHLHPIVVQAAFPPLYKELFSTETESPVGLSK
Source text: It is well known that RORγ binds to a conserved non-coding sequence (CNS) enhancer element in the IL-17 promoter. Accordingly, we have used in this assay a luciferase reporter gene construct that contains the human IL-17 promoter fragment with RORγ-specific CNS enhancer element and a RORγt overexpressing plasmid, to indirectly assess the effect of compounds on RORγ activity. Inhibition of RORγ activity by test compounds will result in a decrease in luciferase activity in COS-7 cells transfected with the reporter construct.
Monkey Kidney COS-7 cell line are maintained in a standard culture medium Dulbecco's modified Eagle's minimal (DMEM) medium supplemented with 10% fetal calf serum, 1% sodium pyruvate, 1% essential amino acids and 1% antibiotics at 37° C. in a humidified atmosphere of 5% CO2 and 95% air. Culture medium was changed every 2 days.
The 4.3 Kb human IL-17 promoter containing the RORγ-specific CNS enhancer element was PCR amplified from human genomic DNA and cloned into a pGL3-TKLuc2Cp reporter plasmid. To overexpress RORγt, the full-length cDNA of human RORγt (identical to published sequence NM 001001523) was cloned without any restriction into pcdna3.1DV5-His-topo to generate the RORγt overexpression plasmid “RORγt_FL_h_pcDNA3.1DV5-His-TOPO_1”.
The luciferase reporter plasmid and the RORγt overexpression plasmid were transfected into COS-7 cell line using 4 μLJetPEITM/μg of DNA. Briefly, 150 ng of DNA (ration ½ between RORE-Tk Luc2Cp and cDNA RORγt or the empty vector for the negative control) was served to transfect adherent COS-7 cells in a […] culture flask, in complete medium (see cos-7 cell line culture). Cells were incubated for 24 hours in a humidified atmosphere of 5% CO2 and 95% air
Cells were then detached (using trypsin) and washed by centrifugation at 300 g for 10 minutes. Cell pellet was resuspended in serum free/phenol red free DMEM and seeded in 384 well plates at a density of 10000 cells/well and then incubated for 4 h at 37° C.
Compounds were dissolved in 100% DMSO to obtain 10 mM stock solutions. For each compound, test concentrations were diluted in serum free/phenol red free DMEM using the Genesis Freedom 200™ (TECAN) and added to the cells to obtain a 0.3% DMSO final concentration (in a final volume of 40 μL per well). T091317 was used as reference compound. Cells were incubated in presence of compounds for an additional 20 h at 37° C. in a humidified atmosphere of 5% CO2 and 95% air
The luciferase activity was then measured with 40 μL/well steady-Glo Luciferase assay system (Promega, Madison, Wis.) and after incubation at room temperature for 30 minutes. The luminescence was estimated using the Ultra384 reader (TECAN). Data were collected and analyzed using GraphPad Prism software (GraphPad Software V5.02, San Diego Calif. USA). IC50 in μM and Emax in % were reported for each compound.

[2] = molecular target: T2, RORγt ligand-binding domain (RORγt-LBD) (Homo sapiens, UniProt P51449); assay: Time-resolved FRET (TR-FRET) RORγt coactivator assay; format: biochemical; settings: GST-RORγ-LBD, biotinylated RIP140 peptide, coactivator displacement
T2 construct: 20 nM recombinantly expressed RORγ-LBD fused to GST
T2 sequence (P51449 269-508 limits assumed): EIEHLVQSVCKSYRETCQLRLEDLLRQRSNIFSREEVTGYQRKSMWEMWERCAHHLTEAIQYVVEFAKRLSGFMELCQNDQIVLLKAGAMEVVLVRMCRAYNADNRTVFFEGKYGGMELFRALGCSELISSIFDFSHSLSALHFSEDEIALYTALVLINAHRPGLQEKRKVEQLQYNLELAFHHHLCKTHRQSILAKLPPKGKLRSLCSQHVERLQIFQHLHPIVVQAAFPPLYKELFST

human RORγt [3] = molecular target: T1, human RORγt; assay: IL-17 secretion from EL4 murine lymphoma overexpressing human RORγt; format: cell-based; set-up: expressed in transfected cells; host or cells: EL-4 murine lymphoma; settings: IL-17 secretion inhibition, PMA and ionomycin stimulation, 24 h
Procedure, shortened: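 EL4 murine lymphoma cells electroporated with hRORγt plasmid, seeded 150000 cells/well, pretreated with compound, then stimulated with PMA (10 ng/mL) and ionomycin (1 μM final) with compound for a further 24 h at 37° C. IL-17 in supernatant measured by HTRF or ELISA.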

IC50 (human RORγt [1]) [nM]	IC50 [2] [nM]	IC50 (human RORγt [3]) [nM]	Compound
1000 to 10000	< 1000	–	Cc1ccc(C(NC(=O)Cc2ccc3[nH]cc(CCC(=O)O)c3c2)c2ccccc2)c(Cl)c1 (stereo not drawn) [Cpd. 7, 3-[5-({[(2-chloro-4-methylphenyl)(phenyl)methyl]carbamoyl}methyl)-1H-indol-3-yl]propanoic acid]
1000 to 10000	< 1000	–	Cc1ccc(C(NC(=O)Cc2ccc3[nH]cc(CCC(=O)O)c3c2)c2ccccc2)c(Br)c1 (stereo not drawn) [Cpd. 9, 3-[5-({[(2-bromo-4-methylphenyl)(phenyl)methyl]carbamoyl}methyl)-1H-indol-3-yl]propanoic acid]
1000 to 10000	< 1000	10000 to 30000	Cc1ccc(C(NC(=O)Cc2ccc3[nH]cc(CCC(=O)O)c3c2)c2ccccc2)c(N2CCCC2)n1 (stereo not drawn) [Cpd. 15, 3-{5-[({[6-methyl-2-(pyrrolidin-1-yl)pyridin-3-yl](phenyl)methyl}carbamoyl)methyl]-1H-indol-3-yl}propanoic acid]
> 10000	1000 to 10000	–	Cc1ccc(C(NC(=O)Cc2ccc3[nH]cc(CCC(=O)O)c3c2)c2ccccc2)c(F)c1 (stereo not drawn) [Cpd. 17, 3-[5-({[(2-fluoro-4-methylphenyl)(phenyl)methyl]carbamoyl}methyl)-1H-indol-3-yl]propanoic acid]
> 10000	1000 to 10000	–	Cc1ccc(F)c(C(NC(=O)Cc2ccc3[nH]cc(CCC(=O)O)c3c2)c2ccccc2)c1 (stereo not drawn) [Cpd. 19, 3-[5-({[(2-fluoro-5-methylphenyl)(phenyl)methyl]carbamoyl}methyl)-1H-indol-3-yl]propanoic acid]
> 10000	< 1000	–	Cc1ccc(C(NC(=O)Cc2ccc3[nH]cc(CCC(=O)O)c3c2)c2ccccn2)c(C)c1 (stereo not drawn) [Cpd. 21, 3-[5-({[(2,4-dimethylphenyl)(pyridin-2-yl)methyl]carbamoyl}methyl)-1H-indol-3-yl]propanoic acid]
1000 to 10000	1000 to 10000	–	O=C(O)Cc1c[nH]c2ccc(CC(=O)NC(c3ccccc3)c3ccccc3N3CCCCC3)cc12 (stereo not drawn) [Cpd. 39, 2-{5-[({phenyl[2-(piperidin-1-yl)phenyl]methyl}carbamoyl)methyl]-1H-indol-3-yl}acetic acid]
> 10000	1000 to 10000	–	Cc1ccc(C(NC(=O)Cc2ccc3[nH]cc(CCC(=O)O)c3c2)c2cccnc2)c(C)c1 (stereo not drawn) [compound 27, 3-[5-({[(2,4-dimethylphenyl)(pyridin-3-yl)methyl]carbamoyl}methyl)-1H-indol-3-yl]propanoic acid]
> 10000	< 1000	–	Cc1ccc(C(NC(=O)Cc2ccc3[nH]cc(CCC(=O)O)c3c2)c2ccccc2)c2ncccc12 (stereo not drawn) [compound 31, 3-[5-({[(5-methylquinolin-8-yl)(phenyl)methyl]carbamoyl}methyl)-1H-indol-3-yl]propanoic acid]
1000 to 10000	< 1000	–	Cc1cc(Cl)ccc1C(NC(=O)Cc1ccc2[nH]cc(CCC(=O)O)c2c1)c1ccccc1 (stereo not drawn) [compound 33, 3-[5-({[(4-chloro-2-methylphenyl)(phenyl)methyl]carbamoyl}methyl)-1H-indol-3-yl]propanoic acid]
< 1000	< 1000	1000 to 10000	O=C(O)CCc1c[nH]c2ccc(CC(=O)NC(c3ccccc3)c3ccccc3N3CCCCCC3)cc12 (stereo not drawn) [compound 35, 3-{5-[({[2-(azepan-1-yl)phenyl](phenyl)methyl}carbamoyl)methyl]-1H-indol-3-yl}propanoic acid]
1000 to 10000	< 1000	10000 to 30000	Cc1ccc(C(NC(=O)Cc2ccc3[nH]cc(CCC(=O)O)c3c2)c2ccccc2)c2ccccc12 (stereo not drawn) [compound 37, 3-[5-({[(4-methylnaphthalen-1-yl)(phenyl)methyl]carbamoyl}methyl)-1H-indol-3-yl]propanoic acid]
–	< 1000	1000 to 10000	O=C(O)CCCCc1c[nH]c2ccc(CC(=O)NC(c3ccccc3)c3ccccc3N3CCCCC3)cc12 (stereo not drawn) [compound 217, 5-{5-[({phenyl[2-(piperidin-1-yl)phenyl]methyl}carbamoyl)methyl]-1H-indol-3-yl}pentanoic acid]
–	1000 to 10000	1000 to 10000	CC(C)(C)OC(=O)CCc1c[nH]c2ccc(CC(=O)NC(c3ccccc3)c3ccc(O)cc3N3CCCCC3)cc12 (stereo not drawn) [compound 264, tert-butyl 3-{5-[({[4-hydroxy-2-(piperidin-1-yl)phenyl](phenyl)methyl}carbamoyl)methyl]-1H-indol-3-yl}propanoate]
< 1000	< 1000	–	Cc1ccc(C(NC(=O)Cc2ccc3[nH]cc(CCC(=O)O)c3c2)c2ccc(C)o2)c(N2CCCCC2)c1 (stereo not drawn) [compound 268, 3-{5-[({[4-methyl-2-(piperidin-1-yl)phenyl](5-methylfuran-2-yl)methyl}carbamoyl)methyl]-1H-indol-3-yl}propanoic acid]
